Reference: US7244741B2, “Fredericamycin derivatives as medicaments for treating tumours” (Biofrontera Discovery GmbH, priority 2002, dated 2007)

System: 12 cancer cell lines: LCL (H460/lung), MACL (MCF7, breast), LXFL (529L, lung), LXFA (629L, lung), MEXF (462NL, melanoma), MEXF (514L, melanoma), MAXF (401NL …)
Assay: Biological activity against 12 cancer cell lines (IC70 averaged over all cell lines)
Format: cell-based
Conditions: mean over 12 cancer cell lines; 5 test concentrations
Procedure: Biological Activity Against 12 Cancer Cell Lines: LCL (H460/lung), MACL (MCF7, breast), LXFL ([…], lung), LXFA ([…], lung), MEXF (462NL, melanoma), MEXF ([…], melanoma), MAXF (401NL, breast), RXF ([…], renal), RXF ([…], renal), UXF ([…], uterus), […]1). Efficacy (IC70), averaged over all cell lines in μg/ml with 5 test concentrations.

Row | SMILES | Efficacy (IC70), averaged over all cell lines [µg/mL]
1 | COc1cccc2c1C(=O)c1c(O)c3c(c(O)c1C2=O)C[C@@](O)(C(=O)CO)C[C@@H]3O[C@H]1C[C@H](N)[C@H](O)[C@H](C)O1 [Adriamycin] | 0.0210
2 | N.N.[Cl][Pt][Cl] [Cisplatin] | 37.1020
3 | C/C=C/C=C/c1cc2cc3c(c(O)c2c(=O)[nH]1)[C@@]1(C(=O)c2c(O)c4c(c(O)c2C1=O)C(=O)C(OC)=CC4=O)C(SCCO)C3 (stereo partly drawn) [Example 3, (8S)-4′,9,9′-trihydroxy-6′-methoxy-7(2-hydroxyethylmercapto)-3-[(1E,3E)-penta-1,3-dienyl]-6,7-dihydrospiro[cyclopenta[g]isoquinoline-8,2′-cyclopenta[b]-napthalene]-1,1′-3′,5′,8′(2H)-pentone] | 0.1340
4 | C/C=C/C=C/c1cc2cc3c(c(O)c2c(=O)[nH]1)C1(CC3)C(=O)c2c(O)c3c(c(O)c2C1=O)C(=O)C(OC)=CC3=O (stereo not shown) [Fredericamycin] | 0.2790
